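Compound exposure: 48 hours, 5 concentrations, 96-well plates. GI50 is the concentration that inhibits growth by half.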 The source made the active and inactive calls. No stated cut-off is given here; in the data, active = GI50 up to about 1.1 µM and inactive = higher.
Experiments:
Assay in all cases: NCI tumour cell line growth inhibition, 48 h
[1] = test system: U-251
[2] = test system: SK-MEL-28
[3] = test system: SF-268
[4] = test system: UACC-62
[5] = test system: UACC-257
[6] = test system: SNB-75
[7] = test system: MCF7
[8] = test system: ACHN
[9] = test system: HL-60
[10] = test system: HOP-62
[11] = test system: HT-29
[12] = test system: 786-0
[13] = test system: HCC 2998
[14] = test system: SNB-19
[15] = test system: SW-620
[16] = test system: K562
[17] = test system: M14
[18] = test system: OVCAR-3
[19] = test system: SF-539

| Structure (SMILES) | GI50 [1] | GI50 [2] | GI50 [3] | GI50 [4] | GI50 [5] | GI50 [6] | GI50 [7] | GI50 [8] | GI50 [9] | GI50 [10] | GI50 [11] | GI50 [12] | GI50 [13] | GI50 [14] | GI50 [15] | GI50 [16] | GI50 [17] | GI50 [18] | GI50 [19] |
| --- | --- | --- | --- | --- | --- | --- | --- | --- | --- | --- | --- | --- | --- | --- | --- | --- | --- | --- | --- |
| Oc1ccc(-c2cn3cc(C(F)(F)F)ccc3n2)cc1 | 41.1 µM (inactive) | > 100 µM (inactive) | 89.1 µM (inactive) | 31.7 µM (inactive) | 29.6 µM (inactive) | 6.84 µM (inactive) | 26.7 µM (inactive) | 12.1 µM (inactive) | 9.18 µM (inactive) | > 100 µM (inactive) | 34.8 µM (inactive) | 30.7 µM (inactive) | 22.1 µM (inactive) | > 100 µM (inactive) | 75.5 µM (inactive) | 35.2 µM (inactive) | 51.3 µM (inactive) | 41.3 µM (inactive) |  |
| O=C(CSc1nc2nncc-2c(O)[nH]1)c1ccc(Cl)cc1 | > 100 µM (inactive) | > 100 µM (inactive) | > 100 µM (inactive) | > 100 µM (inactive) | > 100 µM (inactive) | 0.246 µM (active) | > 100 µM (inactive) | > 100 µM (inactive) |  | > 100 µM (inactive) | > 100 µM (inactive) | > 100 µM (inactive) | > 100 µM (inactive) | > 100 µM (inactive) | > 100 µM (inactive) | > 100 µM (inactive) | > 100 µM (inactive) | > 100 µM (inactive) | > 100 µM (inactive) |
| COC(=O)/C=C/CC(=O)NS(C)(=O)=O | > 10 µM (inactive) | > 10 µM (inactive) | > 10 µM (inactive) | > 10 µM (inactive) | > 10 µM (inactive) |  | > 10 µM (inactive) | > 10 µM (inactive) | > 10 µM (inactive) | > 10 µM (inactive) | > 10 µM (inactive) | > 10 µM (inactive) | > 10 µM (inactive) | > 10 µM (inactive) | > 10 µM (inactive) |  | > 10 µM (inactive) | > 10 µM (inactive) | > 10 µM (inactive) |
| O=c1cc(-c2ccccc2)nc(-n2[nH]c3c(c2=O)CCCC3)[nH]1 | 2.55 µM (inactive) | 4.29 µM (inactive) | 2.7 µM (inactive) | 2.32 µM (inactive) | 5.86 µM (inactive) | 3.13 µM (inactive) | 3.37 µM (inactive) | 3.66 µM (inactive) | 2.73 µM (inactive) |  | 4.31 µM (inactive) | 1.91 µM (inactive) |  | 11 µM (inactive) | 4.24 µM (inactive) | 2.83 µM (inactive) | 5.68 µM (inactive) |  | 4.98 µM (inactive) |
| B.CC(=O)OC1CN2CCC1CC2 (configuration not stated) | > 100 µM (inactive) | > 100 µM (inactive) | > 100 µM (inactive) | > 100 µM (inactive) |  |  | > 100 µM (inactive) | > 100 µM (inactive) | > 100 µM (inactive) | > 100 µM (inactive) | > 100 µM (inactive) | > 100 µM (inactive) | > 100 µM (inactive) |  | > 100 µM (inactive) | > 100 µM (inactive) | > 100 µM (inactive) | > 100 µM (inactive) | > 100 µM (inactive) |
| CC(=N/NC(=S)N1CCCCC1)/C(C)=N\NC(=S)N1CCCCC1 | 1.97 µM (inactive) | 2.08 µM (inactive) | 1.67 µM (inactive) | 1.35 µM (inactive) | 1.87 µM (inactive) | 1.45 µM (inactive) | 1.91 µM (inactive) | 1.55 µM (inactive) |  | 1.79 µM (inactive) | 1.93 µM (inactive) | 1.76 µM (inactive) | 2.12 µM (inactive) | 1.88 µM (inactive) | 2.14 µM (inactive) | 2.25 µM (inactive) | 2.19 µM (inactive) | 1.74 µM (inactive) | 2.35 µM (inactive) |
| CC1(C)O[C@H]2[C@@H]3N=C(c4ccccc4)O[C@@H]3C=C[C@H]2O1 | > 100 µM (inactive) | > 100 µM (inactive) | 17.6 µM (inactive) | > 100 µM (inactive) | > 100 µM (inactive) |  | > 100 µM (inactive) | > 100 µM (inactive) | > 100 µM (inactive) | > 100 µM (inactive) | > 100 µM (inactive) | > 100 µM (inactive) | > 100 µM (inactive) | > 100 µM (inactive) | > 100 µM (inactive) | > 100 µM (inactive) | > 100 µM (inactive) | > 100 µM (inactive) | > 100 µM (inactive) |
| NC12CC3C4CC5(N)CC3C(C1)C(C5)C4C2 | > 100 µM (inactive) | > 100 µM (inactive) | > 100 µM (inactive) | > 100 µM (inactive) | > 100 µM (inactive) |  | > 100 µM (inactive) | > 100 µM (inactive) | > 100 µM (inactive) | > 100 µM (inactive) | > 100 µM (inactive) | > 100 µM (inactive) |  | > 100 µM (inactive) | > 100 µM (inactive) | > 100 µM (inactive) | > 100 µM (inactive) | > 100 µM (inactive) |  |
